Assay results taken from patent publication US12501895B2, “Composition for cryopreservation of myocardial cells” (BEIJING BAHEAL WISART MEDICAL RESEARCH CO., LTD, priority 2020, dated 2025).

System: human cardiomyocytes
Experiment: ex vivo culture of human cardiomyocytes for 7 days, rod-shaped rate (Example 4)
Type: cell-based
Settings: 5-50 μM PAB versus 10 μM BLEB in M199 basal medium, cultured 7 days at 37° C., FIG. 4
Description: The purpose of this experiment was to investigate the effects of BLEB and PAB on cell survival rate and morphology during the ex vivo survival of cardiomyocytes, so as to predict the similarity of their roles during cryopreservation and resuscitation of cardiomyocytes.
10% fetal bovine serum, 100 U/ml penicillin and 100 μg/ml streptomycin were added to the M199 medium (purchased from Sigma Inc.), and the resulting medium was used as a basal medium. The experiments were divided into 6 groups, in which DMSO (as a control group), as well as 10 μM BLEB and 5 μM, 10 μM, 20 μM, and 50 μM PAB were added to the basal medium, respectively. The isolated human cardiomyocytes were divided into 6 groups, and the cells were plated on a 48-well cell culture plate coated with 200 μg/ml laminin in advance using 6 media, and the plate was placed and cultured in a cell incubator (with 5% CO2, and a relative saturated humidity of 95%) at 37° C. for 7 days.

SMILES: Cc1ccc2c(c1)C(=O)[C@]1(O)CCN(c3ccc(N)cc3)C1=N2 [PAB, para-aminoblebbistatin]
- rod-shaped rate of cardiomyocytes: close to or even better than the 10 μM BLEB group
